# Measured values: patent US20120020876A1, “HEDGEHOG PATHWAY INHIBITORS” (priority 2009, published 2012)
# Assay: Compound A concentration in tissues by LC/MS
# Assay type: in vivo, mouse
# Conditions: KPC mice; oral administration 40 mg/kg; 6 h after final dose
# Procedure: KPC mice harboring pancreatic tumors were treated with 40 mg/kg of Compound A by oral gavage, either singly, once daily for four days or at as part of a survival study. […] Six hours following the final dose, tissue samples were harvested, snap frozen in liquid nitrogen and stored at −80° C. Mice with abdominal ascites were excluded from analysis. Samples were analyzed by LC/MS, as described below.
# Calibration standard stock solutions were prepared by dissolving Compound A at a concentration of 2.5 mg/mL in DMSO. Internal standard stock solution was prepared by dissolving deuterated Compound A (Compound A-d^3) in DMSO for a final concentration of 2.5 mg/mL. Stock solutions were stored in aliquots at −80° C. until further use. […]
# Tumor samples were homogenized in 4 volumes of ACN:PBS buffer. […] Compound A concentrations for all tissues were preferentially determined using the 1:1 dilution unless any of the replicates for a given tissue required the higher dilution of 1/100 for accurate quantitation.
# Compound A concentrations in the samples were determined from the calibration curves generated in homogenization buffer. […]
# The data were acquired and processed using the software Analyst 1.4.1 (Applied Biosystems, Foster City, Calif.). For the standard curve samples, peak area ratios of Compound A to internal standard […] were calculated and plotted against the theoretical concentrations. […]
smiles,measurement,value
CC1=C2C[C@H]3[C@@H](CC[C@@H]4C[C@H](NS(C)(=O)=O)CC[C@@]43C)[C@@H]2CC[C@@]2(C1)O[C@@H]1C[C@H](C)CN[C@H]1[C@H]2C.Cl [Compound A],accumulation of drug in PDA tissues,measurable accumulation of drug in PDA tissues
